Measured values as given in US12077503B2, “Substituted cyclic amides and their use as herbicides” (FMC CORPORATION, priority 2015, dated 2024).

Columns and labels:
Test in all cases: Test C flooded paddy test
Assay type in all cases: in vivo
[1] = system: barnyardgrass (Echinochloa crus-galli); conditions: Flood; for Plant response rating (scale of 0 to 100), Barnyardgrass: 0 is no effect, 100 is complete control
Method in brief: (§1)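 Scores express visual response relative to untreated controls, 0 meaning no effect and 100 complete control, assessed 13 to 15 d after treatment in the greenhouse. Compound went into water flooded 3 cm above soil around 2-leaf plants.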

[2] = system: ducksalad (Heteranthera limosa); conditions: Flood; for Plant response rating (scale of 0 to 100), Ducksalad: 0 is no effect, 100 is complete control
Method in brief: as §1

rice (Oryza sativa) = conditions: Flood; for Plant response rating (scale of 0 to 100), Rice: 0 is no effect, 100 is complete control
Method in brief: as §1

[3] = 31 g ai/ha, scale 0 to 100 (0 no effect, 100 complete control), 13 to 15 d

In the case of `O=C1NCC(c2cccc(OC(F)(F)C(F)F)c2)C1C(=O)Nc1cccc(F)c1F` (racemic) [Compound 697], the “Plant response rating, Barnyardgrass” value [1, 3] is reported as 0, the “Plant response rating (scale of 0 to 100), Barnyardgrass” value ([1]; 62 g ai/ha) is reported as 30 and the “Plant response rating (scale of 0 to 100), Barnyardgrass” value ([1]; 125 g ai/ha) is reported as 45. For the same compound, the “Plant response rating (scale of 0 to 100), Barnyardgrass” value ([1]; 250 g ai/ha) was 45, the “Plant response rating, Ducksalad” value [2, 3] was 40 and the “Plant response rating (scale of 0 to 100), Ducksalad” value ([2]; 62 g ai/ha) was 40. The “Plant response rating (scale of 0 to 100), Ducksalad” value ([2]; 125 g ai/ha) was 60, the “Plant response rating (scale of 0 to 100), Ducksalad” value ([2]; 250 g ai/ha) was 100 and the “Plant response rating, Rice” value (rice (Oryza sativa); [3]) was 0. For the same compound, the “Plant response rating (scale of 0 to 100), Rice” value (rice (Oryza sativa); 62 g ai/ha) was 0, the “Plant response rating (scale of 0 to 100), Rice” value (rice (Oryza sativa); 125 g ai/ha) was 50 and the “Plant response rating (scale of 0 to 100), Rice” value (rice (Oryza sativa); 250 g ai/ha) was 70.
